Measured values as given in publication PMC12567066, “Sustainable Synthesis of 1,2-Disubstituted Benzimidazoles as Promising α-Glucosidase Inhibitors: In Vitro and In Silico Evaluation” (Pharmaceuticals, 2025).
“Also recorded” adds a separate entry of the source. Where two headings read alike, the source gives them in different places.

Assays:
[1] = test system: insulin-degrading enzyme (IDE); parameters: method as in PMID 22355395; conditions: towards insulin and β-amyloid, cited from earlier work
[2] = biological target: α-glucosidase (Saccharomyces cerevisiae, UniProt P53341); experiment: biochemical; conditions: for inhibition at 50 µM: 0.25 h; for α-Glucosidase % inib. at 50 μM: 15 min
Sequence of α-glucosidase (P53341 whole entry): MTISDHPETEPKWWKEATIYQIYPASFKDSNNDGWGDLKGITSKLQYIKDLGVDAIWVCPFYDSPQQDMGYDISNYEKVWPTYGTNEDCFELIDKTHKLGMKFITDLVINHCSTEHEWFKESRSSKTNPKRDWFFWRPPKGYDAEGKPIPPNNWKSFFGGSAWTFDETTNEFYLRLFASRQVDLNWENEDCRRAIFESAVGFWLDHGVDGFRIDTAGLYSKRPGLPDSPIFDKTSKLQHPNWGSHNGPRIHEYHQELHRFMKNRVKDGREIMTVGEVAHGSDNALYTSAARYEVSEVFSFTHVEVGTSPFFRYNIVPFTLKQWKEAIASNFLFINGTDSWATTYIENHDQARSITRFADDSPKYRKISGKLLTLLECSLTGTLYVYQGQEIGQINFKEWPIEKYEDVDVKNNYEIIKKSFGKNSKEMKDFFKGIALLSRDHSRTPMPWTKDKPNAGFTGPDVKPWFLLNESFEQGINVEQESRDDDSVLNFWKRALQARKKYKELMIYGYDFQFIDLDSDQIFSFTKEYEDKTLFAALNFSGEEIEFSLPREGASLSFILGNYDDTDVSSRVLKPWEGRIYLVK
Method: The α-glucosidase assay was performed as previously described. The enzyme from Saccharomyces cerevisiae (0.125 U/mL) solution was dissolved in 0.1 M sodium phosphate buffer (pH 6.8). Twenty microliters of test samples at various concentrations (0.005–50 μM) were mixed with the enzyme solution in microplate wells and incubated for 15 min at 37 °C. Subsequently, 20 μL of […] p-nitrophenyl α-D-glucopyranoside (pNPG) solution in 0.1 M phosphate buffer was added. After incubation at 37 °C for 15 min, the reaction was terminated by adding 50 μL of 0.2 M sodium carbonate solution. α-Glucosidase activity was determined spectrophotometrically at 405 nm on a 96-well microplate reader Fluostar (BMG LABTECH GmbH, Offenburg, Germany) by measuring the amount of p-nitrophenol released. DMSO control was used whenever required and the final concentration of DMSO was maintained below 8% v/v, which was found not to affect the enzyme activity. The IC50 values were determined by the interpolation of dose–response curves (Figure S2, Supplementary Material).
(§1) The percentage of inhibition of enzyme activity, for both enzymes, was calculated as (%) by the following equation: A−B/A × 100, where A represents the difference in the absorbance of the control sample between an incubation time of 0 and 1.0 min, and B represents the test sample’s absorbance difference in the same time range.

[3] = DPPH radical scavenging assay; conditions: mean ± SD, three independent experiments
Method: Radical scavenging activity of the better derivatives was estimated according to the previously reported method with slight modification using the stable DPPH radical.
A solution of 0.1 mM DPPH• radical was added to various concentrations of compounds. The reaction mixture was incubated in the dark for 15 min and, thereafter, the absorbance was recorded at 517 nm (VANTAstar_BMG LABTECH GmbH, Germany). The decrease in absorbance of DPPH•, after addition of test compounds compared to the control, was used to calculate the antioxidant activity.
(§2) For each assay, the decrease in absorbance was used to calculate the antioxidant activity, which was expressed as the ability of the antioxidants to scavenge 50% of radical (EC50).

[4] = test system: Caco-2 cells; experiment: Cell viability MTT assay; type: cell-based, human; conditions: 1–30 μM, 24 h
Method: Cells were treated with different concentrations of the compounds (1–30 μM) for 24 h and examined using the MTT assay.
The cellular cytotoxicity of compounds was investigated using a 3-(4,5-dimethylthiazol-2-yl)-2,5-diphenyl-tetrazolium bromide (MTT) assay as previously reported, with minor modifications. The CaCo-2 were exposed for 24 h to compounds at concentrations ranging from […]. Then, MTT reagent (0.5 mg/mL in DMEM) was added to each well. The plate was incubated for 3 h at 37 °C. The MTT solution was removed from the culture plate, and 100 μL of DMSO solvent was added to solubilize the water-insoluble formazan crystals formed in the cells. The absorbance was determined at 570 nm using a microplate reader (VANTAstar_BMG LABTECH GmbH, Ortenberg, Germany).

[5] = ABTS radical scavenging assay; conditions: mean ± SD, three independent experiments
Method: This method is based on the capacity of an antioxidant to scavenge the free radical ABTS^+ [50].
Samples of each compound (5 μL) were added to 245 μL of ABTS solution. The reduction in the blue-green radical ABTS^+ by hydrogen-donating antioxidants was evaluated by measuring the absorbance at 734 nm (VANTAstar_BMG LABTECH GmbH, Ortenberg, Germany), after one minute of incubation. All the measurements were carried out at least three times.
as §2

[6] = biological target: T1, α-amylase from porcine pancreas (Sus scrofa, UniProt P00690); experiment: α-amylase inhibition assay (CNPG3 substrate); type: biochemical; conditions: 10 min, pH 7, mean ± SD, three independent assays, read-out: α-Amylase % inib. at 50 μM
T1 construct: 40 μL of α-amylase from porcine pancreas (1 mg/mL) was used; from tissue; host or cells: porcine pancreas
T1 sequence (P00690 16-511): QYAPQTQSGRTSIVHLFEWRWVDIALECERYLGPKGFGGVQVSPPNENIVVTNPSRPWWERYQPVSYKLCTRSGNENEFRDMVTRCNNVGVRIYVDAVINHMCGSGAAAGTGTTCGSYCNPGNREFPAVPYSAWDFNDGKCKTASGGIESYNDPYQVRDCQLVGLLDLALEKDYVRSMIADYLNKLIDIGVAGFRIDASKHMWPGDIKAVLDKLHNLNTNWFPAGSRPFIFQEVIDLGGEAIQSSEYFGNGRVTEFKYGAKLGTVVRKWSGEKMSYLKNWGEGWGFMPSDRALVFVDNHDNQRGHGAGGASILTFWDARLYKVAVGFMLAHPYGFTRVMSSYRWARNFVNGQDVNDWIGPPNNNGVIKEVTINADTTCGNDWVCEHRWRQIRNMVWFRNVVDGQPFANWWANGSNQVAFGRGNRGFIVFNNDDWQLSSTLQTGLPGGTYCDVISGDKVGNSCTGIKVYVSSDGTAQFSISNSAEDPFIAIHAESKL
Method: The α-amylase assay was conducted as described in previous studies. A reaction mix containing 60 μL of […] sodium phosphate buffer at pH 7.0, 20 μL of 1 M NaCl and 40 μL of α-amylase from porcine pancreas (1 mg/mL) was used. The solution was incubated in the absence or presence of compounds at 37 °C for 10 min. After incubation, 80 μL of a 2.5 μM 2-chloro-4-nitrophenyl α-D-maltotrioside (CNPG3) solution was added as the substrate and 2-chloro-nitrophenol released by the enzymatic hydrolysis was monitored at 405 nm, using a microplate reader (Fluostar BMG LABTECH GmbH, Offenburg, Germany). The results of all the assays described above were expressed as a percentage of the blank control.
as §1

[7] = test system: hPreP; parameters: method as in PMID 24602793; conditions: cited from earlier work
[8] = test system: V. cholerae; conditions: cited from earlier work
[9] = test system: B. cereus; parameters: method as in PMID 22047695; conditions: cited from earlier work
[10] = test system: S. dysenteriae; conditions: cited from earlier work
[11] = mean ± SD, three independent assays, read-out: α-Glucosidase IC50
[12] = pH 6.8, 50 μM, mean ± SD, three independent assays, read-out: α-Glucosidase % inib. at 50 μM
[13] = 50 μM, mean ± SD, three independent assays

## O=[N+]([O-])c1cc(Cn2c(-c3ccc(Cl)c([N+](=O)[O-])c3)nc3ccccc32)ccc1Cl [3k, 1-(4-Chloro-3-nitrobenzyl)-2-(4-chloro-3-nitrophenyl)-1H-benzo[d]imidazole]
[1]
  Effect on IDE activity: actively stimulate IDE activity
[1]; listed as IV
  Effect on IDE activity: improves the activity of insulin-degrading enzyme (IDE)

## Cc1cccc2c1nc(-c1ccc(Cl)c([N+](=O)[O-])c1)n2Cc1ccc(Cl)c([N+](=O)[O-])c1 [8k, 1-(4-Chloro-3-nitrobenzyl)-2-(4-chloro-3-nitrophenyl)-4-methyl-1H-benzo[d]imidazole]
[2]
  IC50: 7.1 µM
[2]; pH 6.8, read-out: α-Glucosidase % inib. at 50 μM
  inhibition at 50 µM: 71.2%
[3]
  DPPH EC50: no detectable antioxidant activity
[4]
  Cytotoxicity / effect on Caco-2 cell viability: none of these compounds affected Caco-2 cell viability; also recorded: no cytotoxic effects
[5]
  ABTS EC50: no detectable antioxidant activity

## Cc1cccc2c1nc(-c1cc(O)ccc1O)n2Cc1cc(O)ccc1O [8r, 2-(1-(2,5-Dihydroxybenzyl)-4-methyl-1H-benzo[d]imidazol-2-yl)benzene-1,4-diol]
[2]; [11]
  IC50: 13.8 ± 2.7 µM
[3]
  EC50: 11.4 ± 1.2 µM
[4]
  Cytotoxicity / effect on Caco-2 cell viability: none of these compounds affected Caco-2 cell viability; also recorded: no cytotoxic effects
[5]
  EC50: 13 ± 0.2 µM

## Cc1cccc2c1nc(-c1cc(O)c(O)c(O)c1)n2Cc1cc(O)c(O)c(O)c1 [8s, 5-(4-Methyl-1-(3,4,5-trihydroxybenzyl)-1H-benzo[d]imidazol-2-yl)benzene-1,2,3-triol]
[2]; [12]
  inhibition at 50 µM: 97.5%
[2]; [11]
  IC50: 0.39 ± 0.04 µM
[3]
  EC50: 7.4 ± 0.2 µM
[4]
  Cytotoxicity / effect on Caco-2 cell viability: none of these compounds affected Caco-2 cell viability; also recorded: no cytotoxic effects
[5]
  EC50: 4.6 ± 0.2 µM

## O=[N+]([O-])c1cc(Cn2c(-c3ccc(Cl)c([N+](=O)[O-])c3)nc3ccccc32)ccc1Cl [C00031]
[2]; [12]
  inhibition at 50 µM: 9.2 ± 1.6%
[6]
  inhibition at 50 µM: 10.2 ± 6.41%

## Cc1cccc2c1nc(-c1ccc(Cl)c([N+](=O)[O-])c1)n2Cc1ccc(Cl)c([N+](=O)[O-])c1 [C00032]
[2]; [13]
  α-Glucosidase % inib. at 50 μM: 71.2 ± 11.4%
[6]
  inhibition at 50 µM: 14 ± 0.15%

## O=[N+]([O-])c1cc(Cn2c(-c3ccc(Cl)c([N+](=O)[O-])c3)nc3cc(Cl)ccc32)ccc1Cl [C00033]
[2]; [12]
  inhibition at 50 µM: 17.3 ± 0.4%
[6]
  inhibition at 50 µM: 15.8 ± 0.5%

## COc1ccccc1Cn1c(-c2ccccc2OC)nc2c(C)cccc21 [C00034]
[2]; [12]
  inhibition at 50 µM: 35.3 ± 6.8%
[6]
  inhibition at 50 µM: 3.2 ± 2.3%

## Cc1cccc2c1nc(-c1ccc(O)c([N+](=O)[O-])c1)n2Cc1ccc(O)c([N+](=O)[O-])c1 [C00035]
[2]; [12]
  inhibition at 50 µM: 3.7 ± 1.4%
[6]
  inhibition at 50 µM: 4.3 ± 2.1%

## Cc1cccc2c1nc(-c1ccc(Br)c(Br)c1)n2Cc1ccc(Br)c(Br)c1 [C00036]
[2]; [12]
  inhibition at 50 µM: 38.2 ± 7.4%
[6]
  inhibition at 50 µM: 35.7 ± 3%

## Cc1cccc2c1nc(-c1cc(O)ccc1O)n2Cc1cc(O)ccc1O [C00037]
[2]; [12]
  inhibition at 50 µM: 94.2 ± 2.8%
[6]
  inhibition at 50 µM: 1.3 ± 0.3%

## Cc1cccc2c1nc(-c1cc(O)c(O)c(O)c1)n2Cc1cc(O)c(O)c(O)c1 [C00038]
[2]; [13]
  α-Glucosidase % inib. at 50 μM: 97.5 ± 0.5%

## Cc1cccc2c1nc(-c1ccc(Cl)c([N+](=O)[O-])c1)n2Cc1ccc(Cl)c([N+](=O)[O-])c1 [C00039]
[2]; read-out: α-Glucosidase IC50, mean ± SD, three independent assays
  IC50: 7.1 ± 2.1 µM

## Cc1cccc2c1nc(-c1cc(O)c(O)c(O)c1)n2Cc1cc(O)c(O)c(O)c1 [C00041]
[2]; [11]
  IC50: 0.39 ± 0.04 µM

## O=[N+]([O-])c1ccc2c(c1)nc(-c1cc(Br)ccc1O)n2Cc1cc(Br)ccc1O [III]
[7]
  hPreP agonism: potent hPreP agonist

## Oc1ccc(Br)cc1Cn1c(-c2cc(Br)ccc2O)nc2ccccc21 [II]
[8]
  Antibacterial activity: particularly active
[9]
  Antibacterial activity: particularly active
[10]
  Antibacterial activity: particularly active

## c1ccc(Cn2c(-c3ccccc3)nc3ccccc32)cc1 [I]
[8]
  Antibacterial activity: particularly active
[9]
  Antibacterial activity: particularly active
[10]
  Antibacterial activity: particularly active

## Cc1c(C)c2c(c(C)c1O)CCC(C)(C(=O)O)O2 (stereo not drawn) [Trolox, reference compound]
[3]
  EC50: 25.3 ± 0.9 µM
[5]
  EC50: 24.4 ± 0.2 µM
